Entries after “also recorded” stand apart in the source; their conditions may differ.
Key:
[1] = test system: GRK2-mediated phosphorylation of Srsf1; assay: Cardiac Srsf1 phosphorylation under basal conditions in non-transgenic B6 mice after short-term treatment; assay type: in vivo, mouse; conditions: 10 mg/kg i.p., 5 h, immunoblot, relative to vehicle
Protocol: A, The GRK2-mediated phosphorylation of Srsf1 was determined by immunoblot in cardiac lysates prepared from hearts of non-transgenic B6 mice after treatment (i.p.) for 5 h with 10 mg/kg of 1-(1,3-benzodioxol-5-yl)-4-(cyclopropane-carbonyl)-3-hydroxy-2-phenyl-2H-pyrrol-5-one (“Compound-1”), 4-(1,3-benzodioxol-5-yl)pyrimidine (“Compound-4”), 1-(1,3-benzodioxol-5-ylmethyl)-5-(4-fluorophenyl)-2-methyl-pyrrole-3-carboxamide (“Compound-2”), or (4R)-N3-(1,3-benzodioxol-5-ylmethyl)-N4-[[3-(trifluoromethyl)phenyl]-methyl]pyrrolidine-3,4-dicarboxamide (“Compound-5”) relative to vehicle-treated B6 controls (“con”). […] B, Left panel: The AAC-induced cardiac p-Srsf1 content was determined in cardiac lysates from B6 mice with AAC after treatment for 7 days with 5 mg/kg/d of 1-(1,3-benzodioxol-5-yl)-4-(cyclopropane-carbonyl)-3-hydroxy-2-phenyl-2H-pyrrol-5-one (“Compound-1”) or (4R)-N3-(1,3-benzodioxol-5-ylmethyl)-N4-[[3-(trifluoromethyl)phenyl]-methyl]pyrrolidine-3,4-dicarboxamide (“Compound-5”) relative to vehicle-treated B6 controls with AAC (“AAC-con”). […] Right and lower panels: Cardiac function parameters were determined by echocardiography in B6 mice with AAC after treatment for 7 days with “Compound-1” or “Compound-5” relative to vehicle-treated B6 controls with AAC ((±s.d.; n=5 (A) and n=3 (B); Dunnett's Multiple Comparison Test vs. con (A) or AAC-con (B)).

B6 mice with AAC [2] = assay: Chronic pressure overload (AAC) model, 7 days of treatment: cardiac p-Srsf1 and echocardiography; assay type: in vivo, mouse; conditions: 5 mg/kg/d for 7 days
Protocol: A, The GRK2-mediated phosphorylation of Srsf1 was determined by immunoblot in cardiac lysates prepared from hearts of non-transgenic B6 mice after treatment (i.p.) for 5 h with 10 mg/kg of 1-(1,3-benzodioxol-5-yl)-4-(cyclopropane-carbonyl)-3-hydroxy-2-phenyl-2H-pyrrol-5-one (“Compound-1”), 4-(1,3-benzodioxol-5-yl)pyrimidine (“Compound-4”), 1-(1,3-benzodioxol-5-ylmethyl)-5-(4-fluorophenyl)-2-methyl-pyrrole-3-carboxamide (“Compound-2”), or (4R)-N3-(1,3-benzodioxol-5-ylmethyl)-N4-[[3-(trifluoromethyl)phenyl]-methyl]pyrrolidine-3,4-dicarboxamide (“Compound-5”) relative to vehicle-treated B6 controls (“con”). […] B, Left panel: The AAC-induced cardiac p-Srsf1 content was determined in cardiac lysates from B6 mice with AAC after treatment for 7 days with 5 mg/kg/d of 1-(1,3-benzodioxol-5-yl)-4-(cyclopropane-carbonyl)-3-hydroxy-2-phenyl-2H-pyrrol-5-one (“Compound-1”) or (4R)-N3-(1,3-benzodioxol-5-ylmethyl)-N4-[[3-(trifluoromethyl)phenyl]-methyl]pyrrolidine-3,4-dicarboxamide (“Compound-5”) relative to vehicle-treated B6 controls with AAC (“AAC-con”). […] Right and lower panels: Cardiac function parameters were determined by echocardiography in B6 mice with AAC after treatment for 7 days with “Compound-1” or “Compound-5” relative to vehicle-treated B6 controls with AAC ((±s.d.; n=5 (A) and n=3 (B); Dunnett's Multiple Comparison Test vs. con (A) or AAC-con (B)). […]

B6 mice with AAC [3] = assay: Chronic pressure overload (AAC) model of heart failure, oral treatment for 2 months; assay type: in vivo, mouse; conditions: for left ventricular ejection fraction: B6 mice, oral 2 months, Compound-1 3 mg/kg/d, Compound-4 5 mg/kg/d, untreated AAC 28.6%±3.5%, ±s.d., n=5
Protocol: A, The left ventricular ejection fraction was determined in 6 month-old male B6 mice with chronic pressure overload imposed by 3 months of AAC and oral treatment with Compound-1 (AAC+compd-1) and Compound-4 (AAC+compd-4) relative to untreated AAC controls. Treatment was started one month after AAC induction and was continued for 2 months. Only mice with heart failure (ejection fraction <34% after one month of AAC) were included in the study (±s.d., n=5/group, ***p=0.0006, **p=0.0051 vs. untreated AAC; Dunnett's multiple comparison test).
We investigated whether the new small molecule GRK2 inhibitors, Compound-1 (1-(1,3-benzodioxol-5-yl)-4-(cyclopropanecarbonyl)-3-hydroxy-2-phenyl-2H-pyrrol-5-one)) and Compound-4 (4-(1,3-benzodioxol-5-yl)pyrimidine) could retard symptoms of heart failure in a chronic pressure overload model of heart failure imposed by abdominal aortic constriction (AAC). Compound-1 (3 mg/kg/d) and Compound-4 (5 mg/kg/d) were applied orally in the AAC-induced model of heart failure. Oral treatment with Compound-1 and Compound-4 was initiated in B6 mice with symptoms of heart failure (left ventricular ejection fraction <34%) induced by four weeks of AAC.
Chronic pressure overload imposed by abdominal aortic constriction (AAC) was used as an experimental model to induce cardiac hypertrophy and signs of heart failure. Aortic constriction of the abdominal aorta was performed in tribromoethanol-anesthetized 8-12 week-old transgenic mice or non-transgenic B6 controls as described (AbdAlla S, et al., Cardiovasc. Hematological Agents Med. Chem. 9, 190-206 (2011)). The abdominal aorta was constricted above the suprarenal artery by tying a 7-0 silk suture ligature against a blunt 26-gauge needle. Age-matched controls underwent identical surgical procedure except for ligation of the aorta (sham-operated mice).

[4] = test system: GRK2-mediated phosphorylation of SRSF1; assay: Immunoblot of SRSF1 phosphorylation (pSRSF1) in HEK (human embryonic kidney) cells; assay type: cell-based; conditions: 10 microM, 60 h, relative to vehicle
Protocol: A, The GRK2-mediated phosphorylation of SRSF1/Srsf1 was determined by immunoblot in lysates from isolated neonatal cardiomyocytes from Tg-SRSF1 mice after incubation for 60 h with 10 microM of paroxetine, 1-(1,3-benzodioxol-5-yl)-4-(cyclopropane-carbonyl)-3-hydroxy-2-phenyl-2H-pyrrol-5-one (“Compound-1”) or 4-(1,3-benzodioxol-5-yl)pyrimidine (“Compound-4”) relative to vehicle-treated control (“C”) cardiomyocytes. B, Immunoblot detection of GRK2-mediated phosphorylation of SRSF1 (pSRSF1) was performed with lysates from HEK (human embryonic kidney) cells incubated for 60 h with 10 microM of 4-(1,3-benzodioxol-5-yl)pyrimidine (“Compound-4”), 1-(1,3-benzodioxol-5-ylmethyl)-5-(4-chlorophenyl)-2-methyl-pyrrole-3-carboxamide (“Compound-24”) or (4R)-N3-(1,3-benzodioxol-5-ylmethyl)-N4-[[3-(trifluoromethyl)phenyl]-methyl]pyrrolidine-3,4-dicarboxamide (“Compound-5”) relative to vehicle-treated controls (“C”).
Briefly, the hearts were dissected out from 2-3 day-old mice, atria and aorta were removed, and the hearts were transferred into sterile buffer A (137 mM NaCl, 5.36 mM KCl, 0.81 mM MgSO4, 5.55 mM dextrose, 0.44 mM KH2PO4, 0.34 mM Na2HPO4, 20 mM HEPES, 100 U/ml penicillin, 100 microg/ml streptomycin, pH 7.4). […]

GPCR phosphorylation = conditions: Lorenz K, et al., Nature 426, 574-579 (2003); read-out: reported IC50 value for RKIP-mediated inhibition of GPCR phosphorylation; cited from earlier work

O=C(C1=C(O)C(c2ccccc2)N(c2ccc3c(c2)OCO3)C1=O)C1CC1 (stereo not shown) [Compound-1, 1-(1,3-benzodioxol-5-yl)-4-(cyclopropane-carbonyl)-3-hydroxy-2-phenyl-2H-pyrrol-5-one]
GRK2-mediated Srsf1 phosphorylation under basal conditions in the hearts of non-transgenic B6 mice [1]: decreased
cardiac performance after chronic pressure overload imposed by AAC (B6 mice with AAC [2]; echocardiography): improved
chronic pressure overload-induced cardiac p-Srsf1 content (B6 mice with AAC [2]; relative to vehicle): retarded
cardiovascular disease-induced ageing (grey coloring of the hair) (B6 mice with AAC [3]; 2 months (8 weeks) of treatment, AAC mice): substantially retarded
AAC-induced cardiac hypertrophy (histology) (B6 mice with AAC [3]; 3 months AAC, 2 months oral treatment): retards; also recorded: decrease
left ventricular ejection fraction (B6 mice with AAC [3]; 3 months AAC): 41.4±4.8%

c1cc(-c2ccc3c(c2)OCO3)ncn1 [Compound-4, 4-(1,3-benzodioxol-5-yl)pyrimidine]
SRSF1 phosphorylation in human kidney cells [4]: inhibited
GRK2-mediated Srsf1 phosphorylation under basal conditions in the hearts of non-transgenic B6 mice [1]: decreased
left ventricular ejection fraction (B6 mice with AAC [3]; 3 months AAC): 38.2±3.7%

B1: RKIP: raf kinase inhibitor protein, a dual-specific GRK2 and Raf kinase inhibitor (protein, UniProt P30086 2-187, looked up)
Phosphatidylethanolamine-bindi …: PVDLSKWSGPLSLQEVDEQPQHPLHVTYAGAAVDELGKVLTPTQVKNRPTSISWDGLDSGKLYTLVLTDPDAPSRKDPKYREWHHFLVVNMKGNDISSGTVLSDYVGSGPPKGTGLHRYVWLVYEQDRPLKCDEPILSNRSGDHRGKFKVASFRKKYELRAPVAGTCYQAEWDDYVPKLYEQLSGK
IC50 (GPCR phosphorylation): 460 nM

— US11628159B2, “Cell-protective compounds and their use” (ETH ZURICH, priority 2017, dated 2023)
